Source: patent US12649719B2, “Modulators of hemoglobin” (Global Blood Therapeutics, Inc., priority 2020, dated 2026)

Columns and labels:
Hb = molecular target: T1, Hb (Homo sapiens, UniProt P68871+P69905); experiment: Whole blood assay: oxygen equilibrium curves (Hemox Analyzer), change in O2 affinity of Hb; format: cell-based; settings: whole blood incubated 1 h at 37° C., equimolar ratio of hemoglobin to compound; sodium salts of 2B (Enantiomer 1), 4B, 5B used
T1 construct: from tissue
Method: Oxygen equilibrium curves (OECs) were collected using a TCS Hemox Analyzer (TCS Scientific Company, New Hope, PA, USA) to measure changes in the binding affinity of O2 to Hb. Whole blood was incubated for 1 h at 37° C. with the indicated compounds in an equimolar ratio of hemoglobin to compound and diluted into TES (2-[[1,3-dihydroxy-2-(hydroxymethyl)propan-2-yl]amino]ethanesulfonic acid)/saline buffer prior to measurements. The diluted samples were then oxygenated with compressed air within the Hemox Analyzer and the OECs were collected during deoxygenation as previously described (Guarnone et al., Haematologica, 1995, 80, 426-430). p 50 (partial pressure of 02 at which Hb is 50% saturated with 02) values were obtained using a non-linear regression analysis. Percentage change in p 50 [Δp50(%)]was calculated as follows: Δp50(%)=[(p 50 of control)-p 50 with compound)/p 50 control]x 100. The sodium salts of compounds 2B (Enantiomer 1), 4B, and 5B described above were used.

Rat PK, oral gavage = format: in vivo; settings: fasted male Sprague-Dawley rats, oral gavage 2 mg/kg and/or 10 mg/kg, sodium salt of 5B used; for half-life: male, Sprague-Dawley, rat, whole blood, po; for T1/2: blood
Method: A group of fasted male Sprague-Dawley rats were dosed via oral gavage at 2 mg/kg and/or 10 mg/kg with test articles formulated in 0.5% methylcellulose suspension with 0.01% polysorbate 80 in PBS (phosphate buffered saline). Blood samples were collected through jugular vein at pre-selected time points. Blood samples were prepared by protein precipitation with ACN, vortexed and then centrifuged before supernatants were transferred for bioanalysis. Test article concentrations were measured by HPLC-MS-MS. Pharmacokinetic parameters were calculated using non-compartment analysis. The T1/2 was calculated via a linear regression of the terminal phase of the blood-time concentration profile.
Results for various compounds disclosed herein (sodium salt of compound 5B described above was used) and select reference compounds (Compound A and Compound B) are summarized in Table 5A and Table 5B.

T1 sequence (P69905 2-142 limits assumed): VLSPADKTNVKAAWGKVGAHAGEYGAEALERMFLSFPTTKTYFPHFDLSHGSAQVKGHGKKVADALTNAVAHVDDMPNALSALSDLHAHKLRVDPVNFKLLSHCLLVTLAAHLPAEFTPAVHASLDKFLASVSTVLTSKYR
T1 sequence (P68871 2-147 limits assumed): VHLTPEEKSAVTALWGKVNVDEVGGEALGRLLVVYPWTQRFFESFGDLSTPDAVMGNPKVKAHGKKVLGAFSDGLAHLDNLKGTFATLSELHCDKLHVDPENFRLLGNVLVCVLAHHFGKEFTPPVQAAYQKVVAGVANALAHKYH

| Delta-p50 (%) (Hb) | half-life (Rat PK, oral gavage) [h] | T1/2 (Rat PK, oral gavage) [h] | Structure (SMILES) |
| --- | --- | --- | --- |
| 55.01 | 102 | – | O=Cc1c(O)cccc1OC[C@@H]1COCCN1C(=O)c1ccccc1CCC(=O)O [Compound 8A, 3-{2-[(3S)-3-[(2-formyl-3-hydroxyphenoxy)methyl]morpholine-4-carbonyl]phenyl} propanoic acid] |
| 0.65 | – | – | O=Cc1c(O)cccc1OC[C@@H]1COCCN1C(=O)c1cccnc1C(=O)O [Compound 3B, 3-[(3S)-3-[(2-formyl-3-hydroxyphenoxy)methyl]morpholine-4-carbonyl]pyridine-2-carboxylic acid] |
| 46.78 | 88.7 | – | O=Cc1c(O)cccc1OC[C@@H]1CSCCN1C(=O)c1ccccc1CCC(=O)O [Compound 9A, 3-{2-[(3R)-3-[(2-formyl-3-hydroxyphenoxy)methyl]thiomorpholine-4-carbonyl]phenyl}propanoic acid] |
| – | 25.9 | – | O=Cc1c(O)cccc1OC[C@@H]1CCCCN1C(=O)c1ccccc1 [Reference Compound A, reference compound] |
| 10.72 | – | – | O=Cc1c(O)cccc1OCC1CSCCN1C(=O)c1cccnc1CC(=O)O (single isomer, unassigned) [Compound 2B (Enantiomer 1), 2-{3-[3-[(2-formyl-3-hydroxyphenoxy)methyl]thiomorpholine-4-carbonyl]pyridin-2-yl} acetic acid] |
| −3.32 | 120 | – | O=Cc1c(O)cccc1OC[C@@H]1CCCCN1C(=O)c1cccnc1CC(=O)O [Compound 5B, (S)-2-(3-(2-((2-formyl-3-hydroxyphenoxy)methyl)piperidine-1-carbonyl)pyridin-2-yl)acetic acid] |
| 11.04 | – | 213 | O=Cc1c(O)cccc1OCC1CSCCN1C(=O)c1ccccc1C(=O)O (single isomer, unassigned) [Compound 5A (Enantiomer 1), 2-(3-((2-formyl-3-hydroxyphenoxy)methyl)thiomorpholine-4-carbonyl) benzoic acid] |
| 63.6 | 89.2 | – | O=Cc1c(O)cccc1OC[C@@H]1CCCCN1C(=O)c1ccccc1CC(=O)O [Compound 4A, 2-{2-[(2S)-2-[(2-formyl-3-hydroxyphenoxy)methyl]piperidine-1-carbonyl]phenyl} acetic acid] |
| 5.09 | – | – | O=Cc1c(O)cccc1OCC1CSCCN1C(=O)c1ccccc1CC(=O)O (stereo not drawn) [Compound 6A, 2-(2-{3-[(2-formyl-3-hydroxyphenoxy)methyl]thiomorpholine-4-carbonyl}phenyl)acetic acid] |
| 0.4 | 11.7 | – | O=Cc1c(O)cccc1OC[C@@H]1CCCCN1C(=O)c1cccnc1C(=O)O [Compound 1B, 3-[(2S)-2-[(2-formyl-3-hydroxyphenoxy)methyl]piperidine-1-carbonyl]pyridine-2-carboxylic acid] |
| 19.57 | – | 13 | O=Cc1c(O)cccc1OCC1CSCCN1C(=O)c1ccccc1C(=O)O (single isomer, unassigned) [Compound 5A (Enantiomer 2), 2-(3-((2-formyl-3-hydroxyphenoxy)methyl)thiomorpholine-4-carbonyl)benzoic acid] |
| – | 29.8 | – | O=Cc1c(O)cccc1OC[C@@H]1COCCN1C(=O)c1ccccc1 [Reference Compound B, reference compound] |
| 11.72 | – | – | O=Cc1c(O)cccc1OC[C@@H]1COCCN1C(=O)c1ccccc1CC(=O)O [Compound 3A, 2-{2-[(3S)-3-[(2-formyl-3-hydroxyphenoxy)methyl]morpholine-4-carbonyl]phenyl}acetic acid] |
| −8.28 | – | – | O=Cc1c(O)cccc1OC[C@@H]1COCCN1C(=O)c1cccnc1CC(=O)O [Compound 4B, 2-{3-[(3S)-3-[(2-formyl-3-hydroxyphenoxy)methyl]morpholine-4-carbonyl]pyridin-2-yl} acetic acid] |
| 4.19 | – | – | O=Cc1c(O)cccc1OC[C@@H]1COCCN1C(=O)c1ccccc1C(=O)O [Compound 2A, 2-[(3S)-3-[(2-formyl-3-hydroxyphenoxy)methyl]morpholine-4-carbonyl]benzoic acid] |
| 14.15 | – | – | O=Cc1c(O)cccc1OCC1CSCCN1C(=O)c1cccnc1C(=O)O (single isomer, unassigned) [Compound 6B (Enantiomer 1), 3-[3-[(2-formyl-3-hydroxyphenoxy)methyl]thiomorpholine-4-carbonyl]pyridine-2-carboxylic acid] |
| 66.43 | 110 | – | O=Cc1c(O)cccc1OC[C@@H]1CCCCN1C(=O)c1ccccc1C(=O)O [Compound 1A, 2-[(2S)-2-[(2-formyl-3-hydroxyphenoxy)methyl]piperidine-1-carbonyl]benzoic acid] |
| 77.13 | 52 | – | O=Cc1c(O)cccc1OC[C@@H]1CCCCN1C(=O)c1ccccc1CCC(=O)O [Compound 7A, 3-{2-[(2S)-2-[(2-formyl-3-hydroxyphenoxy)methyl]piperidine-1-carbonyl]phenyl}propanoic acid] |
